Data reported in patent US20150335602A1, “IMPROVEMENT OF COGNITIVE FUNCTION IN PRETERM INFANTS THAT ARE SMALL FOR GESTATIONAL AGE” (N.V. NUTRICIA, priority 2013, published 2015).

What was measured:
Type in all cases: in vivo, human
[1] = Intellectual development (WISC-III short form, FSIQ) in preterm children born small for gestational age; conditions: SGA glutamine group versus SGA control group, n=9 each
Protocol: A subgroup of infants born small for gestational age (SGA <10th percentile) was identified and analysed separately. Intellectual development was analysed in this subgroup of infants by a short form of the Wechsler Intelligence Scale for Children-III (WISC-III), including the subtests Vocabulary and Block Design. Both subtests correlate strongly (r 0.90) with full-scale intelligence quotient (FSIQ). Scores on this test were normalised with a mean of 100 (SD 15). A group of nine SGA infants that received placebo was compared with a group of nine SGA infants that received glutamine treatment.

[2] = Brain cortical volumes by MRI at school age after enteral glutamine supplementation in the first month of life; conditions: glutamine supplemented group versus control preterm group
Protocol: (§1) A randomized, placebo controlled clinical trial was performed. For a detailed protocol of the study, see van den Berg et al, 2004, Glutamine-enriched enteral nutrition in very low birth weight infants. Design of a double-blind randomised controlled trial [ISRCTN73254583], BMC Pediatrics 4:17.
(§2) In short: Infants with a gestational age <32 weeks and/or birth weight <1500 g were enrolled. […] Also comparisons were made with a control group (n=52) of term born infants.
(§3) The two powders were indistinguishable by appearance, colour and smell. […] Initially, the supplementation dose was based on birth weight. After 2 weeks the dose was adjusted to actual body weight. Two members of the nursing staff daily added supplementation to breast milk or to preterm formula (Nenatal®, Nutricia Nederland B. V., Zoetermeer, The Netherlands), according to the parents' choice. Per 100 ml, Nenatal® provides 78 kcal, 2.1 g protein (casein-whey protein weight ratio 40:60), 4.4 g fat and 7.5 g carbohydrate. […] Protocol guidelines for the introduction of parenteral and enteral nutrition are disclosed in van den Berg et al., 2004.
(§4) All statistical analyses are performed on an intention to treat basis. […]
Brain cortical volumes were determined by MRI and calculated using FSL software “FAST” and corrected for age at MRI scan, gender and body weight for gestational age.

[3] = Brain subcortical volumes by MRI at school age after enteral glutamine supplementation in the first month of life; conditions: glutamine supplemented group versus control preterm group
Protocol: as §1, §2, §3, §4
Brain subcortical volumes were determined by MRI and calculated using FSL software “FAST” and corrected for age at MRI scan, gender and body weight for gestational age.

NC(=O)CC[C@H](N)C(=O)O [Glutamine, L-glutamine]
IQ compared to SGA control group (in words) [1]: significant improvement
White matter volume compared to preterm control group (in words) [2]: significantly higher
Brain stem volume compared to preterm control group (in words) [3]: significantly higher
Hippocampus volume compared to preterm control group (in words) [3]: significantly higher
